These results are taken from patent publication US20210084905A1, “METHODS AND COMPOSITIONS FOR AQUACULTURE” (priority 2018, published 2021).

Assay [1] deals with bacterial strains seeded into an agar soft overlay. The assay is described as follows: secretion assay, soft agar overlay (halo of inhibition). Format: cell-based. To be noted: secreted antibacterial compound. As for the experimental part: Many other phenazine molecules including pyocyanin are shown to elicit antibacterial activity often by causing oxidative stress. To test whether the genes hit in the transposon insertion screen are required, two separate genes with insertions (orf6 & orf8) in the region of the operon were precisely deleted in A603 ΔvipA.
The spectrum of inhibition for the putative phenazine molecule was tested by seeding agar with a diverse set of laboratory and environmental strains using A603 ΔvipA and an isogenic double knockout A603 ΔvipA Δorf8 to score inhibition by appearance of a halo around A603 ΔvipA.

Assay [2] relates to V. cholerae O1 strain, H1. As to the kind of experiment: sensitivity to the A603 phenazine. Format: cell-based. From the text: GO annotations were not assigned to these genes thus they were not included in the hypergeometric and GSEA analyses. One gene (TMChrII_2378) encodes a protein with high structural conservation to heme monooxgenase and the other (TMChrI_2040) a dioxygenase that closely resembles a bleomycin resistance proteins. A second dioxygenase (TMChr1_3001) is also among the top induced genes. This family of dioxygenase proteins includes those that can bind and in some cases hydrolyze planar and aromatic antibacterial molecules including phenazines. Though amino acid sequence similarity is poor, the predicted structure of TMChr1_2040 is very similar to EphR, a protein that loosely binds phenazine in producer strains and confers resistance by binding molecules until export.

`c1ccc2nc3ccccc3nc2c1` [A603 phenazine]: the “growth inhibition (halo) in soft agar overlay” value in assay [1] is on record as “broad spectrum antibacterial activity”. In addition, the “sensitivity of V. cholerae O1 strain H1” value in assay [2] is “very sensitive”.
